The subject of series [1] is 11-cis retinol biosynthesis. The series can be described thus: In vitro 11-cis retinol production by bovine RPE membranes. In kind it is biochemical. Particulars: 10 μM HPR, p<0.05. The protocol:
(§1) We examined the effects on HPR on enzymes or proteins of the visual cycle using in vitro biochemical assays. Specifically, the utilization of exogenous all-trans retinol by membranes prepared from bovine RPE was studied. […] Steady-state levels of HPR in the RPE (determined from mice which have been given 20 mg/kg HPR, i.p., daily for 28 days) range from 5-10 μM. With this in mind, we examined the effects of 10 μM HPR on production of all-trans retinyl esters and 11-cis retinol in assays similar to those described above. […] In the presence of endogenous retinoids, utilization of exogenous all-trans retinol is extremely low and 11-cis retinol is produced solely from the endogenous all-trans retinyl esters. […] Thus, the retinoic acids appear to affect at least two targets in the visual cycle. We have determined that HPR-induced reduction of 11-cis retinol biosynthesis occurs via LRAT inhibition and reduction in all-trans retinyl ester levels. In this situation, the isomerase enzyme is starved for substrate and 11-cis retinol production declines.

The next series has as its target T1, apo-CRALBP (Homo sapiens, UniProt P12271).
T1 construct: made in house
The series can be described thus: Ni+ affinity column and spectroscopic analysis of binding to CRALBP. Particulars: 10 μM apo-CRALBP, 20 μM ligand. On the procedure: In order to confirm data obtained during fluorescence analysis of HPR binding to CRALBP, a second analysis was performed using affinity chromatography and spectroscopic analysis. The recombinant apo-CRALBP was constructed with a histidine tag which is utilized to purify the protein on a Ni+ affinity column following expression cloning. Here, we utilized this feature of apo-CRALBP to specifically “trap” the protein and any protein-ligand species for spectroscopic analysis. Two binding mixtures were prepared containing apo-CRALBP (10 μM) and either 11cRAL (20 μM) or HPR (20 μM). In control experiments for the analysis of non-specific ligand binding onto the affinity matrix, we prepared two additional mixtures containing only 11cRAL (20 μM) or HPR (20 μM) in binding buffer. The binding mixtures were passed through separate Ni+ affinity columns and the columns were washed extensively to elute unbound protein and ligand. Following the addition of elution buffer, the eluted fractions were analyzed by spectroscopy. […] Instead, two absorption maxima are seen: one at 280 nm and a second at 360 nm, which is attributable to the absorption of HPR (see FIG. 14).

The target in series [2] is T2, LRAT (Homo sapiens, UniProt O95237).
T2 construct: host or cells: membranes from liver and small intestine
T2 sequence (O95237 1-230): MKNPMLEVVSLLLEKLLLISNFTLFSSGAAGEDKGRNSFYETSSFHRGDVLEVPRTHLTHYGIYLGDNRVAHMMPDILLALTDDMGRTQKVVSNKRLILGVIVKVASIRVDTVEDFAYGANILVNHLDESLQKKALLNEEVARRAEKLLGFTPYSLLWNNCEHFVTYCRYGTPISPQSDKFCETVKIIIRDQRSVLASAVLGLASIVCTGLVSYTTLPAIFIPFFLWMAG
Particulars: cited from earlier work.

Series [3] deals with patients with a variety of cancers. The conditions noted are these: human patients; cited from earlier work.
Series [4] addresses T3, LRAT (Bos taurus, UniProt Q9BGL2).
T3 construct: bovine RPE microsomes are used as an enzyme source; from tissue; host or cells: bovine retinal pigment epithelium (membranes / microsomes)
T3 sequence (Q9BGL2 1-230): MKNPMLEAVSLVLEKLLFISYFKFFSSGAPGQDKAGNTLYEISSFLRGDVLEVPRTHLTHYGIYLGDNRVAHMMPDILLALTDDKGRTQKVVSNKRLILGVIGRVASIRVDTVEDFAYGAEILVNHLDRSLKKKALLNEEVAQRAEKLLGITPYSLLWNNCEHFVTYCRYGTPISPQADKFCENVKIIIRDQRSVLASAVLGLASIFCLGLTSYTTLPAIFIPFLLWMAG
The series can be described thus: In vitro LRAT assay, retinyl ester synthesis by bovine RPE membranes/microsomes. In kind it is biochemical. The protocol:
as §1
A second target for HPR in the visual cycle was identified using in vitro biochemical assays. Lecithin retinol acyl transferase (LRAT) catalyzes the conversion of retinol into retinyl esters. LRAT is critical not only for retinol-retinyl ester homeostasis but also for generation of substrate for visual chromophore biosynthesis. The data shown in panel A of FIG. 16 illustrate the inhibitory effect of HPR on the rate of retinyl ester synthesis. In this assay, bovine RPE microsomes are used as an enzyme source and all-trans retinol (atROL) is the substrate. […] A secondary transformation (Eadie-Hofstee) of the kinetic data in panel A reveal that the mode of inhibition is competitive (see FIG. 16, panel B). Therefore, HPR competes with atROL for binding sites on LRAT. The apparent inhibition constant (Ki) was determined to be ˜6 μM. This means that at 6 μM HPR, the rate of retinyl ester synthesis would be decreased by 50%. In a separate study, we have determined that HPR concentrations in the RPE approach 10 μM with a 10 mg/kg dose of HPR.

Series [5] is described as follows: HPR concentration in the RPE of treated mice. It is filed as in vivo. On the procedure:
as §1
We performed an analysis of the dissociation constant (KD) for 11cRAL and HPR binding to apo-CRALBP (see FIG. 15). […] This calculation is based upon the ligand concentration necessary to fully quench the protein fluorescence. The data reveal that both 11cRAL and HPR quench apo-CRALBP fluorescence maximally at ˜1.5 μM. Thus, although apo-CRALBP is described as an 11 cis-specific retinoid binding protein, it appears to bind HPR as well.
A second target for HPR in the visual cycle was identified using in vitro biochemical assays. Lecithin retinol acyl transferase (LRAT) catalyzes the conversion of retinol into retinyl esters. LRAT is critical not only for retinol-retinyl ester homeostasis but also for generation of substrate for visual chromophore biosynthesis. The data shown in panel A of FIG. 16 illustrate the inhibitory effect of HPR on the rate of retinyl ester synthesis. […] In a separate study, we have determined that HPR concentrations in the RPE approach 10 μM with a 10 mg/kg dose of HPR.

Data on 1 molecule can be found in patent publication US8410168B2, “Methods and compositions for treating ophthalmic conditions with retinyl derivatives” (Acucela, Inc., priority 2004, dated 2013).

T1 sequence (P12271 whole entry, species assumed): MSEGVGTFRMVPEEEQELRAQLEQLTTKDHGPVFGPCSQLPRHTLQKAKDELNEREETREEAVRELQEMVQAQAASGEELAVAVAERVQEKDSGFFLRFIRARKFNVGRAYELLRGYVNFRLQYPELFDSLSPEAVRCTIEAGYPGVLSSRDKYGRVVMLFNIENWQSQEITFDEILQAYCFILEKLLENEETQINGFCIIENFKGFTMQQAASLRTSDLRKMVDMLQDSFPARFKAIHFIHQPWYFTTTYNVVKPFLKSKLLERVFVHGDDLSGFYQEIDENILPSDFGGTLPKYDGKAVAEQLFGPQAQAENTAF

For the molecule `CC1=C(/C=C/C(C)=C/C=C/C(C)=C/C(=O)Nc2ccc(O)cc2)C(C)(C)CCC1` [HPR, N-(4-hydroxyphenyl)retinamide], the “effect on 11-cis retinol biosynthesis” value in series [1] was “statistically significant inhibition”. Besides, the “binding to apo-CRALBP by absorption spectra of eluted fraction” value at apo-CRALBP is “binds apo-CRALBP”. The “LRAT activity in membranes prepared from liver and small intestine” value on LRAT [2] was “marked inhibition”. Besides, the “plasma concentration after high fat meals versus carbohydrate meals” value in series [3] is recorded as “three times greater”. In addition, the “mode of inhibition of LRAT” value at LRAT [4] (Eadie-Hofstee transformation) is recorded as “competitive”. The “net retinyl ester synthesis” value at LRAT [4] (bovine RPE microsomes, atROL substrate) is on record as “decreases net retinyl ester synthesis in a concentration-dependent manner”. In addition, the Ki on LRAT [4] (bovine RPE microsomes, atROL substrate, read-out: apparent inhibition constant (Ki), LRAT) was approximately 6 µM. For the same molecule, at LRAT [4] (membranes from bovine RPE, exogenous all-trans retinol, read-out: half-maximal inhibition of LRAT), the IC50 was approximately 20 µM. For the same molecule, in series [5] (10 mg/kg dose of HPR), the “HPR concentrations in the RPE” value is approximately 10 µM. Further, the concentration at 28 days in series [5] (BL6/129, mouse, RPE (retinal pigment epithelium), intraperitoneal, 20 mg/kg HPR, i.p., daily for 28 days, read-out: steady-state levels of HPR in the RPE) is 5 to 10 µM. Besides, the “concentrations of HPR in the RPE during the animal trials” value in series [5] (even at the lowest dose of 2.5 mg/kg) is on record as “exceed 30 nM”.
